Assay results as given in PMC10709440, “High-throughput ligand profile characterization in novel cell lines expressing seven heterologous insect olfactory receptors for the detection of volatile plant biomarkers” (Scientific Reports, 2023).
Like-named read-outs stand apart in the source and are kept apart here.

How the values were obtained:
Drosophila OR98a = target: T1, Drosophila OR98a (Drosophila melanogaster, UniProt Q9VAZ3); experiment: Calcium ion fluorescence (GCaMP6) assay, OR98a stable HEK293 cell line; type: cell-based; settings: for OR98a response (VUAA1-normalized) at 1 μM / OR98a response (VUAA1-normalized) at 10 μM / OR98a response (VUAA1-normalized) at 100 μM / Average response: OR98a cell line; for Average response: average of biological replicates, fraction of VUAA1 response
T1 construct: expressed in transfected cells
T1 sequence (Q9VAZ3 1-397): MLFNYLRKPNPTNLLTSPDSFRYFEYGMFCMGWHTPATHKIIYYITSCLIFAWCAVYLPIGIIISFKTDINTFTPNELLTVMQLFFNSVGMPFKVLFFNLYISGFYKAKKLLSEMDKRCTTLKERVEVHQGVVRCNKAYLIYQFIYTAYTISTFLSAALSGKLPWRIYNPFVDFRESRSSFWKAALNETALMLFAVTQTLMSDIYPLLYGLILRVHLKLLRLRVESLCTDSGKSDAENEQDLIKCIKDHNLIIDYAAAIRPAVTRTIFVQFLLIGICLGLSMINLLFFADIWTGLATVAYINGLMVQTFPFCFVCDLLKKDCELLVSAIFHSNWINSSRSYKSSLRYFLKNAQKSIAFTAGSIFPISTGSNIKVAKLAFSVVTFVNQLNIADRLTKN
T1 sequence (Q9VNB5 1-486 partner): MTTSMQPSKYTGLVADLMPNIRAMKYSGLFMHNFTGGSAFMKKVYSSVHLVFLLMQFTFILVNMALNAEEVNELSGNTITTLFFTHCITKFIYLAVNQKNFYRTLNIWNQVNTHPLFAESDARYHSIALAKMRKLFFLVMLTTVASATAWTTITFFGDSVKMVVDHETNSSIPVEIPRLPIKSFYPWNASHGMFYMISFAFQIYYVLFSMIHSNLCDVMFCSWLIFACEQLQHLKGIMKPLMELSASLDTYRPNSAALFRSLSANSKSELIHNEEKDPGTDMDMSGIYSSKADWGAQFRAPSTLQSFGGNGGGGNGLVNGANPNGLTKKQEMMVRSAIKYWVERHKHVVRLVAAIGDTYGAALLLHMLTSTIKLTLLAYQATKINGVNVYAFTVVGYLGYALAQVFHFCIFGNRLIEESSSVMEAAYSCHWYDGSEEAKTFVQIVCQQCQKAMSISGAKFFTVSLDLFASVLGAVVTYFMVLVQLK
Method: These VUAA1 normalized ∆F values were used to compare the different receptors and ligands.
The concentration-dependent effect of the reference ligands on their cognate cell lines was examined in more detail. Twelve different ligand concentrations were measured on each cell line in an overall 0.01 μM to 100 μM concentration range with 5 repetitions with three technical replicates each time.
Twelve thousand to 18,000 cells were plated into each well of a black wall, transparent bottom 384-well microplate (Greiner) 48 h or 72 h before the measurements and were simultaneously treated with 1 μg/mL doxycycline. […] The plate has 24 columns, thus we could record responses in up to eight different cell lines in each plate. On the day of the experiment, the growth medium was replaced with 20 µL assay buffer/well (140 mM NaCl, 5 mM KCl, 2 mM CaCl2, 1 mM MgCl2, 5 mM HEPES-Na, 20 mM glucose, pH 7.3, 340 mOsm). […] Baseline fluorescence (F0) was recorded for 5 s, after which 7 µL VOC buffer (140 mM NaCl, 5 mM KCl, 2 mM CaCl2, 1 mM MgCl2, 5 mM HEPES-Na, 31 mM glucose, 0.1% DMSO, pH 7.3, 340 mOsm) was injected into each well in one row and the fluorescence response was recorded for an additional 30 s, at a rate of one read/sec. VOC solutions (VOC buffer with 4× concentration of the final measured VOC concentration, 9 µL/well was injected) were measured on the same wells in a second round with the same protocol. Each individual concentration of a specific VOC sample was recorded in three wells for the same cell line on the same microplate. The raw data were exported in xls file format, F0 and FMAX values, and the fluorescence intensity changes (∆F) were calculated in Excel (Microsoft) (Supplementary file Data summary.xlsx) using the following equation: ΔF=FMAX-F0/F0 (see also Fig. 1C). On each plate, we recorded the response of each cell line to 50 µM VUAA1. The average of these ∆F values of each cell line were used to calculate the VUAA1-normalized values for the rest of the plate, by dividing VOC response ∆F values by the average VUAA1 response ∆F value of the corresponding OR cell line. Each VOC-OR combination was measured three times as technical replicates. […] The average of these replicates were used as one ∆F and VUAA1-normalized ∆F in the following analysis.
In the next rows we tested the reference VOCs (or other VOCs known to activate the corresponding cell lines), in order to test if all cell lines are responsive. The remaining rows were used to test VOCs with unknown effect.
The recorded FMAX, F0, ∆F, VUAA1-normalized ∆F values, as well as the OR name, the name of the tested sample, and the final concentration for each well were copied into supplementary file Data summary.xlsx, that was used to summarize all the plates recorded. Here, the averages of the measurements were calculated for each receptor-VOC-concentration combination.

OR10a = test system: OR10a; set-up: method as in earlier work; settings: DoOR database value, ref DoOR, cited from earlier work
OR47a = test system: OR47a; set-up: method as in earlier work; settings: DoOR database value; ref DoOR; cited from earlier work
OR85b = test system: OR85b; set-up: method as in earlier work; settings: DoOR database value, ref DoOR, cited from earlier work
OR98a = test system: OR98a; set-up: method as in earlier work; settings: DoOR database value, ref DoOR, cited from earlier work
OR49b = test system: OR49b; set-up: method as in earlier work; settings: DoOR database value, ref DoOR, cited from earlier work
[1] = HEK293, read-out: Average response
[2] = HEK293, read-out: OR98a response (VUAA1-normalized response)
[3] = ligand concentration 1 (unit not given), threshold 0.05, below shown as 0
[4] = ligand concentration 10 (unit not given), threshold 0.05, below shown as 0
[5] = ligand concentration 100 (unit not given), threshold 0.05, below shown as 0
[6] = concentration 1, normalized fluorescence change, values below 0.05 threshold given as 0
[7] = concentration 10, normalized fluorescence change, values below 0.05 threshold given as 0
[8] = concentration 100, normalized fluorescence change, values below 0.05 threshold given as 0
[9] = ligand concentration 1 (unit not given), 0.05 threshold, values below shown as 0
[10] = ligand concentration 10 (unit not given), 0.05 threshold, values below shown as 0
[11] = ligand concentration 100 (unit not given), 0.05 threshold, values below shown as 0
[12] = HEK293, read-out: OR98a Average response (VUAA1-normalized)

Row | SMILES | activation at 1 µM (Drosophila OR98a; [1]) [%] | activation at 10 µM (Drosophila OR98a; [1]) [%] | activation at 100 µM (Drosophila OR98a; [1]) [%] | activation at 1 µM (Drosophila OR98a; [2]) [%] | activation at 10 µM (Drosophila OR98a; [2]) [%] | activation at 100 µM (Drosophila OR98a; [2]) [%] | DF norm AVERAGE OR98a (Drosophila OR98a; [6]) | DF norm AVERAGE OR98a (Drosophila OR98a; [7]) | DF norm AVERAGE OR98a (Drosophila OR98a; [8]) | OR98a response (VUAA1-normalized) at 1 μM (Drosophila OR98a; VOC concentration 1 μM) | OR98a response (VUAA1-normalized) at 10 μM (Drosophila OR98a; VOC concentration 10 μM) | OR98a response (VUAA1-normalized) at 100 μM (Drosophila OR98a; VOC concentration 100 μM) | other results
1 | CCCCCCCCCC=O [decanal] | 3 | 0 | 0 | 0 | 0 | 0 |  |  |  |  |  |  | DF norm AVERAGE OR98a (Drosophila OR98a; [3]): 0; DF norm AVERAGE OR98a (Drosophila OR98a; [4]): 0; DF norm AVERAGE OR98a (Drosophila OR98a; [5]): 0; OR10a DoOR response (OR10a): 0.08
2 | CCCCCO [1-pentanol] | 0 | 2.81 | 0 | 0 | 0 | 0 | 0 | 0 | 0 |  |  |  | OR47a DoOR response (OR47a): 0.17; OR85b DoOR response (OR85b): 0.51; OR10a DoOR response (OR10a): 0.034; OR98a DoOR response (OR98a): 0.23; OR49b DoOR response (OR49b): 0.09
3 | Cc1cccc(O)c1 [3-methylphenol] | 4.63 | 4.61 | 6 | 0 | 0 | 6 | 0 | 0 | 0.05828 |  |  |  | OR49b DoOR response (OR49b): 0.54
4 | Cc1ccccc1 [toluene] | 0 | 4 | 3.33 |  |  |  |  |  |  | 0.00 | 0.00 | 0.00 | DF norm AVERAGE OR98a (Drosophila OR98a; [9]): 0; DF norm AVERAGE OR98a (Drosophila OR98a; [10]): 0; DF norm AVERAGE OR98a (Drosophila OR98a; [11]): 0
5 | C=C1[C@H]2CC[C@@H]3[C@H]2C(C)(C)CCC[C@]13C [(+)-longifolene] |  |  |  |  |  |  | 0 | 0.1258 | 0 |  |  |  | OR98a response (VUAA1-normalized response) (Drosophila OR98a; VOC concentration 1 μM): 0.00; OR98a response (VUAA1-normalized response) (Drosophila OR98a; VOC concentration 10 μM): 0.13; OR98a response (VUAA1-normalized response) (Drosophila OR98a; VOC concentration 100 μM): 0.00; Average response (Drosophila OR98a; cc. 1 µM): 0.0106; Average response (Drosophila OR98a; cc. 10 µM): 0.13; Average response (Drosophila OR98a; cc. 100 µM): 0.0176
6 | Cc1cccc(C)c1 [m-xylene] | 0 | 0 | 2.54 |  |  |  |  |  |  | 0.00 | 0.00 | 0.00 | DF norm AVERAGE OR98a (Drosophila OR98a; [3]): 0; DF norm AVERAGE OR98a (Drosophila OR98a; [4]): 0; DF norm AVERAGE OR98a (Drosophila OR98a; [5]): 0
7 | CCCCCCCCC=O [nonanal] | 0 | 0 | 5.5 |  |  |  |  |  |  | 0.00 | 0.00 | 0.055 | OR85b DoOR response (OR85b; OR85b): 0.091; DF norm AVERAGE OR98a (Drosophila OR98a; [3]): 0; DF norm AVERAGE OR98a (Drosophila OR98a; [4]): 0; DF norm AVERAGE OR98a (Drosophila OR98a; [5]): 0.05502; OR10a DoOR response (OR10a; OR10a): 0.05; OR98a DoOR response (OR98a; OR98a): 0.085; OR49b DoOR response (OR49b; OR49b): 0.03
8 | C=CC(O)C/C=C\CC (stereo not shown) [(5Z)-octa-1,5-dien-3-ol] | 0 | 8 | 7 | 0 | 8 | 7 | 0 | 0.08127 | 0.07281 |  |  |  | 
9 | Cc1ccc(C)c(C)c1 [1,2,4-trimethylbenzene] | 0 | 13 | 5 | 0 | 13 | 5 | 0 | 0.1254 | 0.05229 |  |  |  | 
10 | C=C1CCC2(C(C)C)CC12 (stereo not shown) [sabinene] | 0 | 10 | 2 |  |  |  |  |  |  | 0.00 | 0.10 | 0.00 | DF norm AVERAGE OR98a (Drosophila OR98a; [3]): 0; DF norm AVERAGE OR98a (Drosophila OR98a; [4]): 0.1017; DF norm AVERAGE OR98a (Drosophila OR98a; [5]): 0
11 | CC/C=C\CCOC(C)=O [z3-hexenyl acetate] | 0 | 1.43 | 10 |  |  |  |  |  |  |  |  |  | activation at 1 µM (Drosophila OR98a; [12]): 0%; activation at 10 µM (Drosophila OR98a; [12]): 1%; activation at 100 µM (Drosophila OR98a; [12]): 10%; DF norm AVERAGE OR98a (Drosophila OR98a; [9]): 0; DF norm AVERAGE OR98a (Drosophila OR98a; [10]): 0; DF norm AVERAGE OR98a (Drosophila OR98a; [11]): 0.1048
12 | CCCCOC(=O)CC [butyl propanoate] |  |  |  |  |  |  |  |  |  |  |  |  | OR47a DoOR response (OR47a): 0.38; OR10a DoOR response (OR10a): 0.011
13 | CCCCCCCCCCCCCC [tetradecane] | 0 | 12 | 10 |  |  |  |  |  |  | 0.00 | 0.12 | 0.10 | activation at 1 µM (Drosophila OR98a; [12]): 0%; activation at 10 µM (Drosophila OR98a; [12]): 12%; activation at 100 µM (Drosophila OR98a; [12]): 10%; DF norm AVERAGE OR98a (Drosophila OR98a; [9]): 0; DF norm AVERAGE OR98a (Drosophila OR98a; [10]): 0.1151; DF norm AVERAGE OR98a (Drosophila OR98a; [11]): 0.09569
14 | COc1cccc(OC)c1 [1,3-dimethoxy benzene] | 0 | 1.66 | 3.31 | 0 | 0 | 0 | 0 | 0 | 0 |  |  |  | 
